Here are results for nine molecules from PMC10783051 (Microbiology Spectrum, 2023).

For series [1], the system named is Streptomyces. Particulars: cited from earlier work. From the text: Therefore, we hypothesized that Sv may catabolize those exogenous CLPs and use them as nutritional sources. […] (Fig. 2E and F). Extraction of the me ...
A short description of series [2]: Streptomyces. Conditions: cited from earlier work.
Series [3] in a line: Sv cell-free supernatant (CFS). Conditions: Streptomyces venezuelae ATCC 10712, 30°C, up to 24 h; time course up to 48 h.
A short description of series [4]: Sv cultures grown on gelified GA1 ΔbaeJ-mlnA-dfnA CFS. Conditions: Streptomyces venezuelae, 28°C, up to 3 days.
The nature of series [5]: rhizosphere extracts (agar near tomato roots co-inoculated with Bv and Sv, Hoagland solid medium). Conditions: Streptomyces venezuelae ATCC 10712 / Bacillus velezensis GA1-GFP on tomato (Solanum lycopersicum var. Moneymaker), 22°C, up to 7 days.
Series [6] is described as follows: confrontation zone between B. velezensis GA1 and S. venezuelae ATCC 10712 on REM solid medium (agar extract). Particulars: Streptomyces venezuelae ATCC 10712 / Bacillus velezensis GA1, 26°C, up to 3 days.
Series [7] concerns S. venezuelae supernatant (secreted enzymes). The series is described as follows: In vitro degradation of CLPs by S. venezuelae cell-free supernatant. Conditions: shaking 180 rpm; for degradation of Pseudomonas CLPs by Sv CFS: Pseudomonas CFS (CAA medium) supplemented with 4% (vol/vol) Sv CFS, 24 h at 30°C, UPLC-MS and MS/MS, degraded to different degrees. The format is in vitro ADME, Streptomyces venezuelae ATCC 10712. The procedure: S. venezuelae cultures were performed on ISP2 medium at 28°C (yeast extract 4 g/L, malt extract 10 g/L, glucose 4 g/L, agar 20 g/L; pH 7.3). On 12 × 12 cm Petri square plates, three stripes (1 × 12 cm) of spores were inoculated with a cotton swab [40 µL of spores suspension (10^7 spores/mL) each], spaced by 3 cm each. The plates were left for 7 days of incubation. Next, the agar media was recovered and placed in Falcon tubes at −20°C for 24 h. Then, the agar media were defrosted at room temperature and centrifuged (8,000 rpm for 20 min). Finally, the supernatant leaked from the agar was collected, filtered sterilized (0.22-µm pore size filters) and stored at −20°C until further use. The heat-treated Sv supernatant was generated by incubating an aliquot of the cell-free supernatant of Sv for 10 min at 98°C. The supernatant was then filtered (0.22-µm pore size filters) and stored at −20°C until further use.
[…] Then the solutions were incubated for 24 h at 30°C with continuous shaking (180 rpm). Next, the solution were centrifuged (1 min at 10,000 rpm), filtered (0.22-µm pore size filters), and analyzed by UPLC-MS.
The degradation assays of Pseudomonas CLPs were performed using CFS generated as described above. They were supplemented by 4% (vol/vol) of S. venezuelae CFS prepared as described previously. Next, the solutions were incubated for 24 h at 30°C with continuous shaking (180 rpm). Then, the solution were centrifuged (1 min at 10,000 rpm), filtered (0.22-µm pore size filters), and analyzed by UPLC-MS.
For the CLP degradation kinetic experiments, surfactin, iturin, and fengycin solutions supplemented with S. venezuelae supernatant were prepared following the same protocol. Twenty microliters of solution was sampled at each time point and directly mixed with 80 µL of acetonitrile to stop enzymatic degradation. Finally, they were stored at −20°C until analysis by UPLC-MS.
All UPLC-MS analyses were performed using an Agilent 1290 Infinity II coupled with a diode array detector and a mass detector (Jet Stream ESI-Q-TOF 6530) in positive mode with the parameters set up as follows: capillary voltage of 3.5 kV, nebulizer pressure of 35 lb/in^2, drying gas of 8 L/min, drying gas temperature of 300°C, flow rate of sheath gas of 11 L/min, sheath gas temperature of 350°C, fragmentor voltage of 175 V, skimmer voltage of 65 V, and octopole radiofrequency of 750 V. Accurate mass spectra were recorded in the m/z range of 300–1,700. For untargeted MS/MS, we used the same MS1 parameters as described. We added MS2 untargeted acquisition mode with the parameters as follows: MS/MS range 50–1,700 m/z; MS/MS scan rate 3 spectra/s; isolation width MS/MS medium (approx. 4 AMU), Decision Engine Native; fixed collision energies of 25 and 40 V for surfactin, 50 V for iturin, and 60 V for fengycin experiments; precursor selection: three for the surfactin experiment, four for the iturin and fengycin experiments, threshold 1,500 (Abs), isotope model common, active exclusion after two spectra and release after 0.5 min, sorting the precursors by charge state then abundance (charge state preference 1). For targeted MS/MS, we used the same MS1 parameters MS/MS range of 50–1,700 m/z or 50–3,200 (when required for Pseudomonas CLPs with mass >1,700 Da), MS/MS scan rate 3 spectra/s, isolation width MS/MS narrow (approx. 1.3 amu), and fixed collision energies 20, 40, and 60V. In all experiments, a C18 Acquity UPLC ethylene bridged hybrid column (2.1 mm × 50 mm × 1.7 µm; Waters Corporation, Milford, MA, USA) was used at a flow rate of 0.6 mL/min and a temperature of 40°C. The injection volume was 20 µL, and the diode array detector scanned a wavelength spectrum between 190 and 600 nm. Unless otherwise mentioned, a gradient of acidified water (0.1% formic acid) (solvent A) and of acidified acetonitrile (0.1% formic acid) (solvent B) was used as mobile phase with a constant flow rate of 0.6 mL/min, starting at 10% B and rising to 100% B in 20 min. […]

The test system of series [8] is Streptomyces venezuelae ATCC 10712. The series is described as follows: Confrontation assay B. velezensis GA1 / S. venezuelae on REM plate, UPLC-MS metabolite profiling of the agar. Particulars: gelified REM, 3 days at 26°C. How it is done: Confrontation assays were performed on square Petri dishes (12 × 12 cm) with 40 mL of REM solid medium at 26°C (REM supplemented with 14 g/L of agar).
S. venezuelae ATCC 10712 was inoculated as stripes (1 × 12 cm) in the middle of the plate with 40 µL of spore suspension (10^7 spores/mL) and spread with a cotton swab. Next, B. velezensis GA1 cells were collected from fresh precultures as described and adjusted to OD600 nm 0.1. Then, 5 µL of B. velezensis GA1 suspension was spotted at 1 cm of the Streptomyces line. Control plates were done following the same procedure without the inoculation of either Bacillus or Streptomyces. Plates were then incubated for 3 days at 26°C in the dark. Pictures of the plates were then captured using a CoolPix camera (NIKKOR ×60 wide optical zoom extra-low dispersion vibration reduction 4.3–258.0 mm 1:33 to 6.5).
The extraction of the metabolites from the agar was performed as follows. For the confrontation experiment, we precisely sampled the area of agar (2 × 1 cm) near the colony of Bacillus or Streptomyces (the confrontation zone is 1 cm wide) with standardized plugs. For the in planta, we sampled the agar area (1 × 1 cm) near the tomato roots. In both cases, the agar samples were transferred to Eppendorf tubes and placed for 24 h at −20°C. Then, the agar was thawed at room temperature and centrifuged for 10 min at 13,000 rpm. The supernatants were then collected and filtered (0.22-µm pore size filters) before UPLC-MS analysis.
All UPLC-MS analyses were performed using an Agilent 1290 Infinity II coupled with a diode array detector and a mass detector (Jet Stream ESI-Q-TOF 6530) in positive mode with the parameters set up as follows: capillary voltage of 3.5 kV, nebulizer pressure of 35 lb/in^2, drying gas of 8 L/min, drying gas temperature of 300°C, flow rate of sheath gas of 11 L/min, sheath gas temperature of 350°C, fragmentor voltage of 175 V, skimmer voltage of 65 V, and octopole radiofrequency of 750 V. Accurate mass spectra were recorded in the m/z range of 300–1,700. For untargeted MS/MS, we used the same MS1 parameters as described. We added MS2 untargeted acquisition mode with the parameters as follows: MS/MS range 50–1,700 m/z; MS/MS scan rate 3 spectra/s; isolation width MS/MS medium (approx. 4 AMU), Decision Engine Native; fixed collision energies of 25 and 40 V for surfactin, 50 V for iturin, and 60 V for fengycin experiments; precursor selection: three for the surfactin experiment, four for the iturin and fengycin experiments, threshold 1,500 (Abs), isotope model common, active exclusion after two spectra and release after 0.5 min, sorting the precursors by charge state then abundance (charge state preference 1). For targeted MS/MS, we used the same MS1 parameters MS/MS range of 50–1,700 m/z or 50–3,200 (when required for Pseudomonas CLPs with mass >1,700 Da), MS/MS scan rate 3 spectra/s, isolation width MS/MS narrow (approx. 1.3 amu), and fixed collision energies 20, 40, and 60V. In all experiments, a C18 Acquity UPLC ethylene bridged hybrid column (2.1 mm × 50 mm × 1.7 µm; Waters Corporation, Milford, MA, USA) was used at a flow rate of 0.6 mL/min and a temperature of 40°C. The injection volume was 20 µL, and the diode array detector scanned a wavelength spectrum between 190 and 600 nm. Unless otherwise mentioned, a gradient of acidified water (0.1% formic acid) (solvent A) and of acidified acetonitrile (0.1% formic acid) (solvent B) was used as mobile phase with a constant flow rate of 0.6 mL/min, starting at 10% B and rising to 100% B in 20 min. Solvent B was kept at 100% for 4 min before going back to the initial ratio. MassHunter Workstation (version 10.0) and ChemStation software were used for data collection and analysis. For untargeted analysis of iturin and fengycin degradation products, we used the same solvent and flow rate, starting at 10% B to 20% in 2 min, then rising to 50% B at 14 min and 100% B at 25 min, followed by 100% B and 5 at 10% B at 6 min.

Entries after “also recorded” stand apart in the source; their conditions may differ.

In the case of `C/C(=C/C=C/C=C/C(C)C(=O)O)NC(=O)CC(O)\C(C)=C/C=C\C=C(C)\C=C\C=C/C=C/CNC(=O)C(O)CC(C)C` (centres unmarked) [bacillaene], the “toxicity toward Streptomyces” value in the series on Streptomyces [1] was “toxicity”.

With Fa Glu Leu Leu Val Asp Leu Leu, the fragment found result in the series “Streptomyces [2]” is “linear surfactin”; in series [3] it was “Linear surfactin, first_seen and FaEL”; in series [4], “Linear surfactin; also recorded: ELLVDLL; also recorded: LLVDLL”; in series [5] it was “linear surfactins; also recorded: ELLVDLL”; in series [6] it was “Linear surfactin”. For the same molecule, the cleaved bond entry in series [3] was “Fa-E and E-L and L-L and L-V”; in series [6], “Fa-E”.

In the case of “VSLVVQLVDhbTIHseDabK (lariat or depsi) [sessilin, Pseudomonas cyclic lipopeptide, tested in Pseudomonas cell-free supernatant]”, the “degradation of Pseudomonas CLPs by Sv CFS” value in series [7] is given as “degraded”.

For the molecule difficidin, in the series on Streptomyces [1], the “toxicity toward Streptomyces” value was “toxicity”.

For fengycin, in series [7] (pure CLPs (100 µM) incubated 24 h at 30°C with 4% (vol/vol) Sv CFS (grown on ISP2, 0.22-µm filtered), UPLC-MS/MS with feature-based molecular networking), the “degradation of pure Bacillus CLPs by Sv CFS” value is listed as “degrades”. Besides, the “shorter CLP fragment detected in the confrontation zone but not in Bv monoculture” value in series [8] (UPLC-MS, MS/MS) is given as “loss of the terminal isoleucine”. Further, the “abundance of the CLP in the confrontation zone compared with monocultures” value in series [8] (agar extract of confrontation zone, UPLC-Q-TOF-MS peak areas, three biological replicates) is listed as “decrease in the abundance”.

Take macrolactin: in the series on Streptomyces [1], the “toxicity toward Streptomyces” value was “toxicity”.

As for orfamide, in series [7], the “degradation of Pseudomonas CLPs by Sv CFS” value is “degraded”.

As for putisolvin, the “degradation of Pseudomonas CLPs by Sv CFS” value in series [7] is reported as “degraded”.

For the molecule xantholisin, the “degradation of Pseudomonas CLPs by Sv CFS” value in series [7] is “degraded”.
